“Also recorded” adds a separate entry of the source.
Assays:
[1] = test system: IGF-1; assay: Dose titration laboratory study (10 days): serum IGF-1; type: in vivo; details: cats
Protocol: This study defined a capromorelin oral solution dose regime that provides increased food intake and weight gain and the accompanying desired profile of IGF-1 serum levels. Laboratory adult cats were housed individually and divided into five groups (3/sex/group; n=6/group). Cats were dosed once daily for 10 consecutive days with either placebo, 1 mg/kg AT-002, 2 mg/kg AT-002, 3 mg/kg AT-002 or 4 mg/kg AT-002. The test article was a flavored solution formulation very similar to the final formulation. Study activities are summarized at Table 5.

[2] = Safety of daily capromorelin in cats for 91 days at an oral dose of 6 mg/kg; type: in vivo
Protocol: (§1) This controlled study included two treatment groups with 4 adult cats receiving placebo (Group 1) and 8 adult cats receiving capromorelin (Formulation #9, as described above) (Group 2) for 91 consecutive days. All cats were offered food daily for a 6-hour period following an 11-day acclimation phase. All cats were weighed on Days −11, −1, 1, 14, 30, 59, 75, and 91. On Days 1 through 91, animals were orally administered capromorelin once daily via syringe at dose levels of 0 or 6 mg/kg. At one hour post-dose, all cats were offered food for a 6-hour period. Variables of interest included weight gain/loss, food consumption, clinical pathology, and serum analysis of IGF-1 and GH.
(§2) On Days 1, 30, 59, and 91, blood samples were collected prior to daily dose administration and at 8 hours post-dose and processed to serum for analysis of IGF-1 and GH levels. Hematology parameters included white blood count (WBC), hemoglobin (HgB), red blood count (RBC), platelet count (PLT), platelet morphology, hematocrit (HCT), mean corpuscular volume (MCV), mean corpuscular hemoglobin (MCH), WBC differential, RBC and WBC morphology, mean corpuscular hemoglobin concentration (MCHC), reticulocytes, and blood smear. Serum chemistry parameters measured included albumin (ALB), creatine kinase (CK), albumin/globulin ratio (A\G), globulin (GLOB), alkaline phosphatase (ALP), glucose (GLU), fructosamine, alanine aminotransferase (ALT), blood urea nitrogen (BUN), phosphorus (PHOS), calcium (Ca), potassium (K), chloride (Cl), sodium (Na), cholesterol (CHOL), total protein (TP), creatinine (CRE), total bilirubin (TBIL), BUN/creatinine ratio, and sodium/potassium ratio.
Urine samples were collected via cystocentesis and/or by collection in pans/trays from all cats for urinalysis. Before blood collection, all animals were fasted at least 8 hours. Urinalysis parameters measured included specific gravity (SG), pH (PH), color (COL), clarity (CLAR), blood (BLO), protein (UPRO), bilirubin (UBIL), glucose (UGLU), ketones (KET), and the microscopic examination of the sediments for RBC/hpf, WBC/hpf, bacteria (BACT), epithelial cells, mucus, casts, and crystals.

[3] = Safety of capromorelin administered daily to Beagle dogs for one year; type: in vivo; details: for high dose relative to proposed clinical dose for dogs (safety margin): 52.4 mg/kg vs proposed clinical dose; for high dose relative to proposed clinical dose for dogs (safety margin) / tolerability / toxicity: L-tartrate; for tolerability / toxicity: oral gavage once daily, doses up to 52.4 mg/kg
Protocol: This study evaluated the safety of capromorelin in dogs. Thirty-two Beagle dogs were randomly assigned to four groups (n=4/sex/group) and received 0 mg/kg, 0.39 mg/kg, 9.2 mg/kg, or 52.4 mg/kg capromorelin (with the dose calculated per the tartrate salt) once daily by oral gavage for 12 consecutive months. Safety parameters were evaluated including clinical signs, food consumption, bodyweight, clinical pathology, urinalysis, ophthalmology, electrocardiogram and vital signs. Capromorelin, GH and IGF-1 were measured in plasma samples collected at various time points during the study. At the end of the dosing period, dogs were humanely euthanized and necropsied. Selected organs were weighed and tissue samples collected and processed for microscopic examination.

[4] = test system: IGF-1; assay: Pilot clinical field study: IGF-1 serum levels; type: in vivo, cats
Protocol: The key variable for the determination of effectiveness was bodyweight. Other effectiveness variables measured included body condition score, muscle condition score, quality of life assessments (unvalidated) and owner appetite assessments (unvalidated). Safety was assessed by physical examinations, clinical pathology testing (hematology and serum chemistry), urinalysis, serum IGF-1 levels and adverse event monitoring.

[5] = test system: GH; assay: 91-day cat safety study: serum GH; type: in vivo; details: cats, 6 mg/kg, compared to placebo controls; attenuated through Days 30, 59, 91
Protocol: as §1
as §2, with “Hematology parameters included white blood count (WBC), hemoglobin (HgB), red blood count (RBC), platelet count (PLT), platelet morphology, hematocrit (HCT), mean corpuscular volume (MCV), mean corpuscular hemoglobin (MCH), WBC differential, RBC and WBC morphology, mean corpuscular hemoglobin concentration (MCHC), reticulocytes, and blood smear.” left out

[6] = test system: IGF-1; assay: Laboratory cats modelling CKD safety pilot study: IGF-1 levels; type: in vivo; details: cats with compromised kidney function, 2 mg/kg subcutaneous injection for 14 days
Protocol: Sixteen cats with compromised kidney function were enrolled in the study and randomized to three groups. Animals assigned to Group 1 (n=6) were administered AT-002 once on Day 0 by intravenous catheter at a dose rate of 0.75 mg/kg per cat. Animals assigned to Group 2 (n=6) were administered the AT-002 daily for 14 days by subcutaneous injection at a dose rate of 2 mg/kg. Subcutaneous and intravenous treatment routes were used to assure that sufficient drug exposure occurred. Animals assigned to Group 3 (n=4) served as untreated controls.
Blood samples were collected for capromorelin and/or IGF-1 analysis from animals assigned to Group 1 on Study Day 0. Blood samples were also collected from animals assigned to Groups 2 and 3 on Study Days −1 and 13 (prior to dosing) for hematology and clinical chemistry analysis. Appetite was assessed by food intake and weight gain. Bodyweight measurements were performed on Days −7, −1 (all groups) and on Day 13 (Groups 2 and 3 only). Food intake was monitored from Day −7 to Day 13 inclusive for animals assigned to Groups 2 and 3. Animals were observed daily for clinical signs.

## CN1N=C2CCN(C(=O)[C@@H](COCc3ccccc3)NC(=O)C(C)(C)N)C[C@@]2(Cc2ccccc2)C1=O.O=C(O)C(O)C(O)C(=O)O [capromorelin, N-[(2R)-1-[(3aR)-2-methyl-3-oxo-3a-(phenylmethyl)-6,7-dihydro-4H-pyrazolo[4,3-c]pyridin-5-yl]-1-oxo-3-(phenylmethoxy)propan-2-yl]-2-amino-2-methylpropanamide L-tartrate]
[1]; following treatment, Days 1 and 10
  time of initial IGF-1 response (increase): about 4 hours
[1]; once-a-day dosing
  duration of elevated IGF-1 levels post-dose: 24 h
[1]; post-dose, Days 1 and 10
  time to maximum relatively steady IGF-1 level: ≤ 8 h
[2]; 6 mg/kg
  resolution of post-dose clinical observations: usually resolved within five minutes
[2]; 6 mg/kg oral once daily, 91 days
  mean rate of bodyweight change: 0.0086
[2]; 6 mg/kg oral once daily, Day 14
  mean bodyweight change from baseline (Day 1): 0.26 kg
[2]; 6 mg/kg oral once daily, Day 30
  mean bodyweight change from baseline (Day 1): 0.46 kg
[2]; 6 mg/kg oral once daily, Day 59
  mean bodyweight change from baseline (Day 1): 0.64 kg
[2]; 6 mg/kg oral once daily, Day 75
  mean bodyweight change from baseline (Day 1): 0.73 kg
[2]; 6 mg/kg oral once daily, Day 91
  mean bodyweight change from baseline (Day 1): 0.80 kg
[2]; 6 mg/kg oral once daily, baseline average of Days -3 through -1
  food consumption, mean change from baseline: 14.95 grams
[2]; 6 mg/kg, 0.0086 vs 0.0010 for placebo
  mean rate of bodyweight change, factor vs placebo: 8.6
[2]; 6 mg/kg, 91 days
  chronic hyperglycemia: no chronic hyperglycemia
[2]; 6 mg/kg, a rate of one = one more gram of food consumed each day
  food consumption, mean rate of change: 1.2396
[2]; 6 mg/kg, acclimation to Day 91, reference range 0.6 to 2.4 mg/dL
  creatinine levels: within the normal reference range
[2]; 6 mg/kg, acclimation to Day 91, reference range 14 to 36 mg/dL
  BUN levels: within the normal reference range
[2]; 6 mg/kg, compared to the placebo group
  serum glucose levels: increased
[2]; 6 mg/kg, reference range 191 to 349 μmol/L
  serum fructosamine: No fructosamine values exceeded the normal reference range
[2]; 6 mg/kg, seen immediately post-dose
  most common clinical observations: hypersalivation (ptyalism), lip smacking, emesis, and head shaking
[3]; 52.4 mg/kg and 9.2 mg/kg groups, 1 to 2 hours following dosing
  pressure rate quotient (PRQ) interval, electrocardiogram: slight increases
[3]; 52.4 mg/kg dose
  absolute liver weights: Increased
[3]; 52.4 mg/kg group
  red blood cells, hemoglobin and hematocrit: slight deceases
[3]; 52.4 mg/kg group compared to placebo
  cholesterol, HDL and alkaline phosphatase serum levels: statistically significantly increased
[3]
  high dose relative to proposed clinical dose for dogs (safety margin): about 17.5 times
[3]; listed as Capromorelin
  high dose relative to proposed clinical dose for dogs (safety margin): approximately 17.5 times
[3]; all capromorelin treated groups
  hepatocellular cytoplasmic vacuolation: slight increase
[3]; dogs, 12 months, noted sporadically
  clinical signs related to capromorelin: salivation and loose stool
[3]; dogs, Days 90, 181 and 349
  capromorelin plasma levels: accumulation: no accumulation of drug
[3]; dogs, higher dose treatments
  reddening/swollen paws: increased incidence
[3]; dogs, 12 months
  tolerability / toxicity: well-tolerated; also recorded: favorable toxicology
[3]; dogs, 12 months, listed as Capromorelin
  tolerability / toxicity: minimal toxicity
[3]; dogs, up to 52.4 mg/kg daily, 12 months
  effects on food consumption, bodyweight, ophthalmic exams, vital signs or gross pathology: no negative effects
[4]; 2 mg/kg once daily, Day 30
  IGF-1 Serum Levels, Mean Levels (SEM): 855.60 ± 72.74 ng/mL
[4]; 2 mg/kg once daily, Day 30, L-tartrate
  IGF-1 Serum Levels, Change over baseline (Day 0): 274.60 ± 49.06 ng/mL
[4]; 2 mg/kg once daily, Day 60
  IGF-1 Serum Levels, Change over baseline (Day 0): 195.64 ± 40.70 ng/mL
  IGF-1 Serum Levels, Mean Levels (SEM): 752.55 ± 56.89 ng/mL
[4]; 2 mg/kg once daily, Day 90
  IGF-1 Serum Levels, Change over baseline (Day 0): 163.82 ± 52.74 ng/mL
  IGF-1 Serum Levels, Mean Levels (SEM): 720.73 ± 65.70 ng/mL
[4]; capromorelin group, Day 0 (baseline)
  IGF-1 Serum Levels, Mean Levels (SEM): 556.91 ± 64.30 ng/mL
[5]
  GH following treatment: increased
[6]
  IGF-1 levels: sustained increase

From patent US10064909B2, “Compositions and methods for chronic use of a weight-gaining compound” (priority 2015, dated 2018)
